Experiments:
[1] = Stability of carbohydrate-linked enzyme substrate peptide linkers; type: physicochemical; settings: linker: carbohydrate linked to the enzyme substrate peptide
Procedure: (§1) The specific aspartic acid endopeptidase (Legumain) enzyme substrate peptide was ligated to different types of carbohydrates, and the stability and enzymatic cleavage efficiency of the resulting linker were tested, and a strong activation was predicted.

[2] = molecular target: T1, aspartic acid endopeptidase (Legumain) (Homo sapiens, UniProt Q99538); experiment: Enzymatic cleavage (digestion) efficiency of linkers; type: biochemical; settings: linker cleaved by Legumain
T1 sequence (Q99538 18-323): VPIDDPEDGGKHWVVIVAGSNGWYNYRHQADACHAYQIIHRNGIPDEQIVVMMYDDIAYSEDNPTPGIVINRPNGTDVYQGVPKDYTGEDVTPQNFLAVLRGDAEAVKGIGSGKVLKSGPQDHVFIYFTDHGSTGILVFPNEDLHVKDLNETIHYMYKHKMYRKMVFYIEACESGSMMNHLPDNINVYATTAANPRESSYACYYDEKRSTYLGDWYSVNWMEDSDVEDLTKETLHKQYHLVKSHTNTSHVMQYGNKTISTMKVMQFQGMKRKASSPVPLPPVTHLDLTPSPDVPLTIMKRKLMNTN
Procedure: as §1

D121 lung cancer cells = experiment: D121 lung cancer immunotherapy model; settings: for Tumor inhibition rate/% (week 7) / CD8: CD45 (%): single agent; for Tumor inhibition rate/% (week 7): i.v. ⅙ MTD once a week for 4 weeks; for CD8: CD45 (%): tumor CD8+ T cells among CD45-positive cells
Procedure: (1) D121 lung cancer cells purchased from ATCC were cultured in DMEM medium containing 10% fetal bovine serum at 37° C. and 5% CO2, and the cells were digested with EDTA trypsin according to routine use, and passed two to three times a week for placement.
(2) Animals: C57 BALB/C mice, 6-8 weeks old, female, weighing about 18-22 g, purchased from Shanghai SLAC Laboratory Animal Co., Ltd.
3) Immunization: Mice were intraperitoneally injected with 100 μL of 5×10^5 D121 lung cancer cells that died by repeated freeze-thaw cycles, and immunized 3 times with an interval of 2 weeks.
4) Cell seeding: Collect the tumor cells in logarithmic growth phase, adjust the D121 cell concentration to (1×10^7/ml) with DMEM basal medium, 0.1 ml of the cell suspension was inoculated to the right side of each mouse subcutaneously with a 1 ml syringe. […] Tumor volume was observed and measured, and the average tumor volume reached 100-200 mm^3 about 7 days after inoculation, that is, tumor cell-bearing mice were grouped and administered. The immunized group in Table 9 was immunized with D121 lung cancer cells, and the D121 dead tumor cell immunized group was injected with physiological saline as a control.
The immunosuppressive regulatory point protein Anti-PD-L1 antibody was injected twice a week. A total of two weeks.
6) Experimental observation: During the whole experiment, the use and observation of experimental animals were carried out in accordance with the regulations of AAALAC. The experimental animals were observed daily after inoculation of tumor cells, and their onset and death were recorded. During the routine experiment, all experimental animals were monitored and recorded for behavior, feeding, water intake, weight change, hair shine and other abnormalities.
(7) Analysis of tumor CD8+ T cells (T lymphocyte subsets). Tumor tissues were ground and single cancer cells were isolated by filtration using 40 μm Nylon cell strainer, lysed twice with blood cell lysis buffer for 20 min, washed twice with 1% BSA-PBS buffer, centrifuged, and resuspended, and then the cells were counted again. 1×10^5 cells were incubated with leukocyte co-antigen CD45-PE and CD8-FITC-labeled antibody for 1 hour at room temperature in the dark, and then analyzed the proportion of T lymphocyte antigen (CD8) in leukocyte common antigen (CD45)-positive cells by flow cytometry.

Heg2 cells = experiment: MTT cytotoxicity on Heg2 cells; type: cell-based; settings: FIG. 3; for toxicity to Heg2 cells: 48 hours, pH 6.5, MTT; for inhibition of cancer cells versus positive controls: cell viability experiments
Procedure: Collect logarithmic Heg2 cells, adjust the cell suspension concentration, add 140 ul per well, and plate to adjust the density of the cells to be tested ˜5000/well; 5% CO2, incubate at 37° C. overnight, until the cell monolayer is covered with the bottom of the well (96) Condensate bottom plate), adding continuous concentration gradient to give different concentrations of compound S1, compound a and sorafenib, the drug set 9 concentration gradients, 10 ul per well, set 3 duplicate wells; 5% CO2, 37° C. PH6 0.5 incubation for 48 hours, observed under an inverted microscope; 20 μl of MTT solution (5 mg/ml, i.e. 0.5% MTT) was added to each well and incubation was continued for 4 h. The culture was terminated, and the culture solution in the well was carefully aspirated; 100 ul of dimethyl sulfoxide was added to each well, and shaken on a shaker at a low speed for 10 min to dissolve the crystals sufficiently. The absorbance of each well was measured at an enzyme-linked immunosorbent detector at OD490 nm. At the same time, zero adjustment holes (medium, MTT, dimethyl sulfoxide), control group (cell, same concentration of drug dissolution medium, medium, MTT, dimethyl sulfoxide) were set.

[3] = Drug content in tumor tissue homogenate (HPLC); type: in vivo; settings: 10 micromoles per kilogram intravenous, tumor-bearing mice, FIG. 4
Procedure: Intravenous injection of 10 micromoles per kilogram of the drug into tumor-bearing mice, surgically obtained tumor tissue homogenate, and the drug content was determined by the HPLC method.

[4] = MTD (maximum tolerated dose) acute toxicity in mice; type: in vivo, mouse; settings: female, mouse, in vivo; BALB/C mice, intravenous, observed 17 days
Excerpt: (§2) Test purpose: to investigate the acute toxicity of highly activated compounds by targeted site molecules of the invention by measuring the MTD (maximum tolerated dose) experiment in mice.
(§3) The injections of each drug and the control drug were uniformly dissolved using water for injection, and diluted to the corresponding dose with physiological saline during the test.
(§4) Methods and results: […] BALB/C mice, weighing 19-21 g, were randomly divided into 10 groups, with 10 mice in each group. […] A control test of the saline group and the adriamycin group injection (commercially available, Beijing Yue kang) was carried out, and the injection volume of each mouse was 0.2 ml. […] On the D3, D5, and D14, blood samples were taken for whole blood count.

BALB/C mouse = experiment: as above; type: in vivo; settings: intravenous; for Number of deaths: 10 mice per group; for Death dose: observed 17 days
Excerpt: as §2, §3, §4

[5] = system: Tumor-associated macrophages (M2 type); experiment: MTT toxicity on tumor-associated macrophages (M2 type); type: cell-based; settings: 48 hours, pH 6.5, MTT, FIG. 7
Procedure: Tumor-associated macrophages (M2 type) induced by mononuclear bone marrow cells were collected by M-CSF (10 ng/ml), the cell suspension concentration was adjusted, 140 ul per well was added, and the cells were adjusted to a density of ˜3000 […]. 5% CO2, incubate at 37° C. overnight, until the cell monolayer is covered with the bottom of the well (96-well flat bottom plate), and then add a continuous concentration gradient to give different concentrations of the drug, the drug is set to 9 concentration gradients, 10 μl per well, set Three replicate wells; 5% CO2, incubated at 37° C., pH 6.5 for 48 hours, observed under an inverted microscope; 20 μl of MTT solution (5 mg/ml, i.e., 0.5% MTT) was added to each well and culture was continued for 4 h. The culture was terminated, and the culture solution in the well was carefully aspirated; 100 ul of dimethyl sulfoxide was added to each well, and shaken on a shaker at a low speed for 10 min to dissolve the crystals sufficiently. The absorbance of each well was measured at an enzyme-linked immunosorbent detector at OD490 nm. At the same time, zero adjustment holes (medium, MTT, dimethyl sulfoxide), control group (cell, same concentration of drug dissolution medium, medium, MTT, dimethyl sulfoxide) were set. The toxicity of the compound to tumor-associated macrophages (M2 type) was analyzed after the test. The inhibition of tumor-associated macrophages (M2 type) by different drugs was compared. […] Compound a, sorafenib, is also toxic because it is not a targeted activating drug.

aspartic endopeptidase = molecular target: T2, aspartic endopeptidase (Homo sapiens, UniProt Q99538); experiment: Activation efficiency by aspartic endopeptidase (HPLC); type: biochemical; settings: 1 mg/ml compound, enzyme 1 μmol/L, pH 6.0, 37° C., 2 hours; ratio of released product to original compound
T2 sequence (Q99538 18-323): T1 sequence (Q99538 18-323)
Procedure: The sample compound and a portion of the control compound (herein, all of the control compounds can be synthesized by a method similar to that described in Examples 1-3) were uniformly diluted 10-fold to 1 mg/ml with the enzyme-digesting solution. In this experiment, 1 mg/ml of the sample compound was added to the aspartic endopeptidase (1 μmol/L, pH 6.0) at 37° C. for 2 hours. After the reaction, the enzyme digest was able to release the enzyme-digested product. The decrease in the compound and the increase in the product were examined by HPLC to compare the enzyme activation efficiency (the ratio of the product released by the enzyme cleavage to the original compound).

[6] = Solid stability, 60° C. for 10 days in the dark (HPLC); type: physicochemical; settings: solid, 60° C., 10 days, dark; for Stability(%): content versus time 0
Procedure: The test was carried out by leaving it at 60° C. for 10 days in the dark. The ratio of the change in the content of the compound to the compound at time 0 was measured by HPLC, and the stability value (%) was calculated.

CT26 tumor cells [7] = experiment: CT26 immunotherapy model (Example 15); type: in vivo, mice; settings: for Cure rate % / Number of cures: 10 in each group; for Tumor inhibition rate % (Day 42): IV ⅓ MTD once a week, 6 weeks; for Recurrence rate % (Week 7): cured mice re-inoculated with CT26 cells after 50 days
Procedure: (§5) 1) CT26 tumor cells were purchased from ATCC, and the cells were cultured using a 10% fetal bovine serum DMEM medium at 37° C., 5% CO2. The cells were passaged every 3 days and the cells were used within 15 generations.
(§6) 2) Tumor production: 10^6 live CT26 tumor cells were injected subcutaneously into the back of tumor-immunized […], and treatment was started when the tumor grew to about 0.3-0.4 cm. The tumor size (mm^3) of the mice was recorded and compared with the solvent control group. The tumor inhibition rate on day 42 was calculated in the solvent control group.
(§7) 3) Treatment process: IV injection is used, and the drug is used at a dose of ⅓ MTD once a week Immunosuppressive IV injection treatment once a week for a total of 6 weeks of treatment.
(§8) 4) The cure rate of 10 in each group was counted. After 50 days, the cured mice and wild groups were inoculated […] to detect recurrence.

CT26 tumor cells [8] = experiment: CT26 treatment model (Example 17); type: in vivo, mice; settings: CT26 model as in Example 15
Procedure: as §5, §6, §7, §8
The CT26 immunotherapy model was constructed as in Example 15, and the pharmacodynamic and immunotherapeutic effects of the compounds S4-S6, S9-S12 and S15-S18 in the CT26 treatment model were tested.

[9] = Stability of sorafenib derivatives in buffer systems; type: physicochemical; settings: weak acid, weak base and neutral buffer
Excerpt: In order to solve this dilemma, the present invention performs allosteric synthesis and screening of the ortho-carboxamide group of the pyridine ring in the sorafenib molecule, and obtains a special compound which satisfies both the structure-activity relationship and the release effect. That is, compound a and compound b).

## CC(/N=C\[C@H](O)[C@@H](O)[C@H](O)[C@H](O)CO)C(=O)NC(C)C(=O)NC(CC(N)=O)C(=O)Nc1ccc(CO)cc1 (some centres unmarked)
[1]
  stability: 89.6%
[2]
  Digestion efficiency: 25.5%

## CC(/N=C(\CO)C(O)C(O)C(O)CO)C(=O)NC(C)C(=O)NC(CC(N)=O)C(=O)Nc1ccc(CO)cc1 (centres unmarked)
[1]
  stability: 85.5%
[2]
  Digestion efficiency: 35.8%

## CC(NC(=O)C(C)NC(=O)[C@H](O)[C@H](O)[C@@H](O[C@@H]1O[C@H](CO)[C@H](O)[C@H](O)[C@H]1O)[C@H](O)CO)C(=O)NC(CC(N)=O)C(=O)Nc1ccc(COC(=O)N(C)CCNC(=O)c2cc(Oc3ccc(NC(=O)Nc4ccc(Cl)c(C(F)(F)F)c4)cc3)ccn2)cc1 (some centres unmarked) [Compound S1, Lacto-AAN-PABC-compound a]
D121 lung cancer cells
  Tumor inhibition rate/% (week 7): 53.4%
D121 lung cancer cells; flow cytometry
  CD8: CD45 (%): 11.0%
Heg2 cells
  toxicity to Heg2 cells: non-toxic to normal cells
[3]
  drug distribution in the tumor: multiplied in the distribution of sorafenib in the tumor
[4]
  MTD at 17 days: 300 mg/kg
BALB/C mouse
  Number of deaths: 1
  Death dose: 350 mg/kg
[5]
  toxicity to / activation by tumor-associated macrophages (M2 type): more susceptible to phagocytosis and activation by macrophages than other methods of linker
Aspartic endopeptidase
  Activation efficiencies (%): 86.7%
[6]
  Stability verdict (stable / unstable): stable
  Stability(%): 96.7%
CT26 tumor cells [7]
  Cure rate %: 40%
  Number of cures: 4
  Tumor inhibition rate % (Day 42): 94.7%
  Recurrence rate % (Week 7): 0%

## CC(NC(=O)C(C)NC(=O)[C@H](O)[C@H](O)[C@@H](O[C@@H]1O[C@H](CO)[C@H](O)[C@H](O)[C@H]1O)[C@H](O)CO)C(=O)NC(CC(N)=O)C(=O)Nc1ccc(COC(=O)N(C)CCNC(=O)c2cc(Oc3ccc(NC(=O)Nc4ccc(Cl)c(C(F)(F)F)c4)c(F)c3)ccn2)cc1 (some centres unmarked) [Compound S2, Lacto-AAN-PABC-Compound b]
D121 lung cancer cells
  Tumor inhibition rate/% (week 7): 52.4%
D121 lung cancer cells; flow cytometry
  CD8: CD45 (%): 10.5%
[3]
  drug distribution in the tumor: multiplied in the distribution of sorafenib in the tumor
[4]
  MTD at 17 days: 300 mg/kg
BALB/C mouse
  Number of deaths: 2
  Death dose: 350 mg/kg
Aspartic endopeptidase
  Activation efficiencies (%): 88.4%
[6]
  Stability verdict (stable / unstable): stable
  Stability(%): 99.6%
CT26 tumor cells [7]
  Cure rate %: 50%
  Number of cures: 5
  Tumor inhibition rate % (Day 42): 92.4%
  Recurrence rate % (Week 7): 0%

## CNC(=O)c1cc(Oc2ccc(NC(=O)Nc3ccc(Cl)c(C(F)(F)F)c3)cc2)ccn1 [Sorafenib, reference compound]
D121 lung cancer cells; flow cytometry, discussion of Table 6
  effect on T cells: inhibited T cells
D121 lung cancer cells
  Tumor inhibition rate/% (week 7): 24.5%
D121 lung cancer cells; flow cytometry
  CD8: CD45 (%): 6.4%
[4]
  MTD at 17 days: 11 mg/kg
BALB/C mouse
  Number of deaths: 0
  Death dose: 12 mg/kg
[5]
  toxicity to / activation by tumor-associated macrophages (M2 type): also toxic
CT26 tumor cells [8]
  CD8: CD45 (%): 7.2%
  Number of animals cured: 0
  Tumor inhibition rate/% (at week 7): 15.7%

## CNCCNC(=O)c1cc(Oc2ccc(NC(=O)Nc3ccc(Cl)c(C(F)(F)F)c3)cc2)ccn1 [compound a]
[9]
  stability in buffer systems: stable in weak acid, weak base and neutral buffer system, did not degrade
Heg2 cells
  toxicity to Heg2 cells: more toxic than sorafenib
  inhibition of cancer cells versus positive controls: inhibited cancer cells better than the positive control drugs sorafenib and regorafenib
[5]
  toxicity to / activation by tumor-associated macrophages (M2 type): also toxic

## CNCCNC(=O)c1cc(Oc2ccc(NC(=O)Nc3ccc(Cl)c(C(F)(F)F)c3)c(F)c2)ccn1 [compound b]
[9]
  stability in buffer systems: stable in weak acid, weak base and neutral buffer system, did not degrade
Heg2 cells
  inhibition of cancer cells versus positive controls: inhibited cancer cells better than the positive control drugs sorafenib and regorafenib

## PEG-Ala-Ala-ASN-PABC
[1]
  stability: 97.6%
[2]
  Digestion efficiency: 68.6%
